From ChEMBL document CHEMBL1914296, “Copper(II) chloride mediated synthesis and DNA photocleavage activity of 1-aryl/heteroaryl-4-substituted-1,2,4-triazolo[4,3-a]quinoxalines” (Eur J Med Chem, 2011)

Assays:
[1] = Solubility of compound in DMSO; format: physicochemical
[2] = system: Nucleic Acid; test: (§1) Induction of bacteriophage supercoiled double stranded phiX174 plasmid DNA cleavage assessed as formation of relaxed open circular form at 120 ug followed by UV irradiation for 45 mins using ethidium bromide staining by agarose gel electrophoresis-based UV transilluminator analysis relative to control; format: nucleic-acid assay; set-up: scale not given: the % may be the effect or the level left; conditions: unidentified phage
[3] = system: Nucleic Acid; test: Induction of bacteriophage supercoiled double stranded phiX174 plasmid DNA cleavage assessed as formation of relaxed open circular form at 40 ug using ethidium bromide staining by agarose gel electrophoresis-based UV transilluminator analysis relative to control; format: nucleic-acid assay; set-up: scale not given: the % may be the effect or the level left; conditions: unidentified phage
[4] = system: Nucleic Acid; test: as §1, with “30” for “120”; format: nucleic-acid assay; set-up: scale not given: the % may be the effect or the level left; conditions: unidentified phage
[5] = system: Nucleic Acid; test: as §1, with “80” for “120”; format: nucleic-acid assay; set-up: scale not given: the % may be the effect or the level left; conditions: unidentified phage

solubility [1]	Activity [2] [%]	Activity [3] [%]	Activity [4] [%]	Activity [5] [%]	SMILES
soluble					Cc1nc2ccccc2n2c(-c3ccccc3[N+](=O)[O-])nnc12
soluble					Cc1nc2ccccc2n2c(-c3ccco3)nnc12
soluble	68	0	26	53	Cc1nc2ccccc2n2c(-c3cccs3)nnc12
soluble					Cc1nc2ccccc2n2c(-c3ccccc3Cl)nnc12
